Assays:
[1] = tested on: HCT-116 colon tumor cells expressing mutant Ras, compared to HT-29 expressing wild-type Ras; assay: Ras selectivity by growth inhibition, HT-29 versus HCT-116; format: cell-based, human; settings: ratio of IC50 in HT-29 to IC50 in HCT-116; 5000 cells/well, 96-well plates, Cell Titer Glo
Method: (§1) This example illustrates cell growth assays that can be employed in the present invention. Cells can include A-549, HT-29, MDA-MB-231, Colo-205, Caco2, HCT-116, SW-480, and DLD-1 human cancer cells obtained from the American Type Culture Collection (ATCC). Human tumor cells are cultured using standard methods in RPMI-1640 growth medium supplemented with 5% fetal bovine serum (FBS). Normal rat kidney (NRK) and Ki-Ras transformed NRK cells (K-NRK) are obtained from ATCC, and were cultured according to supplier recommendations. CellTiter-Glo ATP cell growth assay reagents are obtained from Promega and used according to the manufacturer's protocol. Inhibitors of EGFR, Raf, and MEK are obtained from Selleck Chemicals. Cells are plated at a density of 5,000 cells per well in 96-well microplates or 1,250 cells per well in 384-well plates, and allowed to attach for at least 4 h. Test compounds are dissolved in dimethyl sulfoxide (DMSO), and this working stock is further diluted in growth medium for addition to cell cultures. Serial dilutions of the test compound are prepared in growth medium containing an equal amount of DMSO not exceeding 0.2% final concentration. Each compound concentration is tested in at least 3 separate samples per cell line. At the end of a 3-day treatment period, growth inhibition is analyzed using a bioluminescent assay of ATP concentration (Promega CellTiter-Glo) according to the manufacturer's protocol. The resulting luminescence is measured using the luminescence cartridge of the Molecular Devices Spectramax Paradigm microplate reader. The relative growth inhibition for each sample is determined by comparison with the values obtained for vehicle treated control samples. Growth inhibition values are plotted with the GraphPad Prism5 software using the 4-parameter logistic fit to obtain IC50 values, which corresponds to the growth inhibitory potency of the compound.
(§2) This example illustrates the use of well-established human colon tumor cell lines with widely divergent Ras activation status to determine selectivity values for exemplary compounds of the present invention. Cell lines thus employed in this example were HCT-116, a highly Ras-driven line expressing mutant Ras, SW-480, another strongly Ras-driven line expressing mutant Ras, and HT-29, a non-Ras-driven line expressing wild-type, non-mutated Ras. Cells were plated at 5000 cells/well in 96-well plates, and viable cell numbers were measured using the Cell Titer Glo ATP luminescence assay (Promega). FIGS. 5A-5F show results of these studies for exemplary compounds 054, 058, 057, 055, and 056, respectively. The calculated HT-29/HCT-116 selectivity values for the first five of the aforementioned compounds were 14, 13, 18, 11 and 5, respectively. The calculated HT-29/SW-480 selectivity values for the aforementioned compounds were 16, 16, 19, 13 and 5, respectively.

[2] = tested on: SW-480 colon tumor cells expressing mutant Ras, compared to HT-29 expressing wild-type Ras; assay: Ras selectivity by growth inhibition, HT-29 versus SW-480; format: cell-based, human; settings: ratio of IC50 in HT-29 to IC50 in SW-480; 5000 cells/well, 96-well plates, Cell Titer Glo
Method: as §1, §2

HCT-116 = assay: CellTiter-Glo growth inhibition, HCT-116; format: cell-based, human; settings: ten-fold serial dilutions, ras-mutant line
Method: as §1, with “Cells can include A-549, HT-29, MDA-MB-231, Colo-205, Caco2, HCT-116, SW-480, and DLD-1 human cancer cells obtained from the American Type Culture Collection (ATCC). Human tumor cells are cultured using standard methods in RPMI-1640 growth medium supplemented with 5% fetal bovine serum (FBS).” left out
(§3) Cells were seeded in 384-well plates and allowed to attach. Ten-fold serial dilutions of compounds were tested. Each compound concentration was tested in at least 3 separate samples per cell line.

DLD-1 = assay: CellTiter-Glo growth inhibition, DLD-1; format: cell-based, human; settings: ten-fold serial dilutions, ras-mutant line
Method: as §1, with “Cells can include A-549, HT-29, MDA-MB-231, Colo-205, Caco2, HCT-116, SW-480, and DLD-1 human cancer cells obtained from the American Type Culture Collection (ATCC). Human tumor cells are cultured using standard methods in RPMI-1640 growth medium supplemented with 5% fetal bovine serum (FBS).” left out
as §3

SW-480 = assay: CellTiter-Glo growth inhibition, SW-480; format: cell-based, human; settings: ten-fold serial dilutions, ras-mutant line
Method: as §1, with “Cells can include A-549, HT-29, MDA-MB-231, Colo-205, Caco2, HCT-116, SW-480, and DLD-1 human cancer cells obtained from the American Type Culture Collection (ATCC). Human tumor cells are cultured using standard methods in RPMI-1640 growth medium supplemented with 5% fetal bovine serum (FBS).” left out
as §3

Caco-2 = assay: CellTiter-Glo growth inhibition, Caco-2; format: cell-based, human; settings: ten-fold serial dilutions, wild type Ras line
Method: as §1, with “Cells can include A-549, HT-29, MDA-MB-231, Colo-205, Caco2, HCT-116, SW-480, and DLD-1 human cancer cells obtained from the American Type Culture Collection (ATCC). Human tumor cells are cultured using standard methods in RPMI-1640 growth medium supplemented with 5% fetal bovine serum (FBS).” left out
as §3

HT-29 = assay: CellTiter-Glo growth inhibition, HT-29; format: cell-based, human; settings: ten-fold serial dilutions, wild type Ras line
Method: as §1, with “Cells can include A-549, HT-29, MDA-MB-231, Colo-205, Caco2, HCT-116, SW-480, and DLD-1 human cancer cells obtained from the American Type Culture Collection (ATCC). Human tumor cells are cultured using standard methods in RPMI-1640 growth medium supplemented with 5% fetal bovine serum (FBS).” left out
as §3

COLO-205 = assay: CellTiter-Glo growth inhibition, COLO-205; format: cell-based, human; settings: ten-fold serial dilutions, wild type Ras line, lowest level of active Ras
Method: as §1, with “Cells can include A-549, HT-29, MDA-MB-231, Colo-205, Caco2, HCT-116, SW-480, and DLD-1 human cancer cells obtained from the American Type Culture Collection (ATCC). Human tumor cells are cultured using standard methods in RPMI-1640 growth medium supplemented with 5% fetal bovine serum (FBS).” left out
as §3

[3] = tested on: panel of human colorectal cancer cell lines; assay: Growth inhibition by known Ras pathway inhibitors across the cell line panel; format: cell-based; settings: comparison of potency across cell lines with differing Ras activation
Method: This example illustrates cell growth assays that can be employed in the present invention. Cells can include A-549, HT-29, MDA-MB-231, Colo-205, Caco2, HCT-116, SW-480, and DLD-1 human cancer cells obtained from the American Type Culture Collection (ATCC). Human tumor cells are cultured using standard methods in RPMI-1640 growth medium supplemented with 5% fetal bovine serum (FBS). Normal rat kidney (NRK) and Ki-Ras transformed NRK cells (K-NRK) are obtained from ATCC, and were cultured according to supplier recommendations. CellTiter-Glo ATP cell growth assay reagents are obtained from Promega and used according to the manufacturer's protocol. […] At the end of a 3-day treatment period, growth inhibition is analyzed using a bioluminescent assay of ATP concentration (Promega CellTiter-Glo) according to the manufacturer's protocol. The resulting luminescence is measured using the luminescence cartridge of the Molecular Devices Spectramax Paradigm microplate reader. The relative growth inhibition for each sample is determined by comparison with the values obtained for vehicle treated control samples. […]
This example illustrates the levels of Ras activation in different colorectal cancer cells. […] The ratio of the intensity of the Ras to GAPDH bands was expressed as relative Ras activation, which is presented above each lane in FIG. 4. […]

[4] = tested on: cells expressing oncogenic H-Ras; settings: literature value, NIH probe report, cited from earlier work
[5] = Homo sapiens, HCT-116, 384-well plates
[6] = Homo sapiens, DLD-1, 384-well plates
[7] = Homo sapiens, SW480, 384-well plates
[8] = Homo sapiens, Caco-2, 384-well plates
[9] = Homo sapiens, HT-29, 384-well plates
[10] = Homo sapiens, COLO 205, 384-well plates

IC50 (HCT-116; [5]) [µM] | IC50 (DLD-1; [6]) [µM] | IC50 (SW-480; [7]) [µM] | IC50 (Caco-2; [8]) [µM] | IC50 (HT-29; [9]) [µM] | IC50 (COLO-205; [10]) [µM] | SMILES | HT-29/HCT-116 selectivity value [1] | HT-29/SW-480 selectivity value [2] | further results
 |  |  |  |  |  | COc1cc(/C=C2/C(C)=C(CC(=O)Nc3ccc(F)cc3)c3cc(F)ccc32)cc(OC)c1O [Compound 054, (Z)-2-(5-fluoro-1-(4-hydroxy-3,5-dimethoxybenzylidene)-2-methyl-1H-inden-3-yl)-N-(4-fluorophenyl)acetamide] | 14 | 16 | 
 |  |  |  |  |  | COc1cc(/C=C2/C(C)=C(CC(=O)Nc3ccc(Cl)cc3)c3cc(F)ccc32)cc(OC)c1O [Compound 055, (Z)—N-(4-chlorophenyl)-2-(5-fluoro-1-(4-hydroxy-3,5-dimethoxybenzylidene)-2-methyl-1H-inden-3-yl)acetamide] | 11 | 13 | 
 |  |  |  |  |  | COc1cc(/C=C2/C(C)=C(CC(=O)Nc3ccc(Cl)c(Cl)c3)c3cc(F)ccc32)cc(OC)c1O [Compound 056, (Z)—N-(3,4-dichlorophenyl)-2-(5-fluoro-1-(4-hydroxy-3,5-dimethoxybenzylidene)-2-methyl-1H-inden-3-yl)acetamide] | 5 | 5 | 
 |  |  |  |  |  | COc1cc(/C=C2/C(C)=C(CC(=O)Nc3ccc(Br)cc3)c3cc(F)ccc32)cc(OC)c1O [Compound 057, (Z)—N-(4-bromophenyl)-2-(5-fluoro-1-(4-hydroxy-3,5-dimethoxybenzylidene)-2-methyl-1H-inden-3-yl)acetamide] | 18 | 19 | 
 |  |  |  |  |  | COc1cc(/C=C2/C(C)=C(CC(=O)Nc3cccc(Br)c3)c3cc(F)ccc32)cc(OC)c1O [Compound 058, (Z)—N-(3-bromophenyl)-2-(5-fluoro-1-(4-hydroxy-3,5-dimethoxybenzylidene)-2-methyl-1H-inden-3-yl)acetamide] | 13 | 16 | 
8.14 | 7.64 | > 20 | > 20 | ≥ 23.6 | 0.0758 | OCCn1cc(-c2ccc3c(c2)CC/C3=N\O)c(-c2ccncc2)n1 [GDC0879] |  |  | 
 |  |  |  |  |  | O=C1Nc2ccc(I)cc2/C1=C/c1cc(Br)c(O)c(Br)c1 [GW5074] |  |  | IC50 (HCT-116; 384-well plates): 15.8 µM; IC50 (DLD-1; 384-well plates): 7.75 µM; IC50 (SW-480; 384-well plates): 8.07 µM; IC50 (Caco-2; 384-well plates): > 20 µM; IC50 (HT-29; 384-well plates): 19.1 µM; IC50 (COLO-205; 384-well plates): 7.1 µM; selectivity with regard to Ras activation [3]: did not show selectivity for cell lines expressing activated Ras
 |  |  |  |  |  | Cc1onc(C(=O)N2CCN(C(c3ccc(Cl)cc3)c3ccc(Cl)cc3)CC2)c1[N+](=O)[O-] [ML210] |  |  | selectivity versus cells lacking oncogenic Ras [4]: 4 fold; IC50 ([4]; read-out: IC50, growth of cells expressing mutant Ras): 0.071 µM
4.11 | ≥ 20.4 | > 20 | > 20 | 0.854 | 0.0046 | Cn1cnc2c(F)c(Nc3ccc(Br)cc3Cl)c(C(=O)NOCCO)cc21 [Selumetinib] |  |  | 
5.99 | 5.62 | 6.86 | 5.2 | 5.1 | 0.151 | CCCS(=O)(=O)Nc1ccc(F)c(C(=O)c2c[nH]c3ncc(-c4ccc(Cl)cc4)cc23)c1F [Vemurafenib] |  |  | 
